Results from ChEMBL document CHEMBL2074124, “A transfected cell model for the renal toxin transporter, rOCT2” (Toxicol Sci, 1999).

Columns and labels:
[1] = target: T1, Solute carrier family 22 member 2 (Rattus norvegicus, UniProt Q9R0W2); assay: TP_TRANSPORTER: inhibition of TEA uptake (apical to cell) in OCT2-expressing NIH3T3 cells; assay type: functional, cell-based
T1 sequence (Q9R0W2 whole entry): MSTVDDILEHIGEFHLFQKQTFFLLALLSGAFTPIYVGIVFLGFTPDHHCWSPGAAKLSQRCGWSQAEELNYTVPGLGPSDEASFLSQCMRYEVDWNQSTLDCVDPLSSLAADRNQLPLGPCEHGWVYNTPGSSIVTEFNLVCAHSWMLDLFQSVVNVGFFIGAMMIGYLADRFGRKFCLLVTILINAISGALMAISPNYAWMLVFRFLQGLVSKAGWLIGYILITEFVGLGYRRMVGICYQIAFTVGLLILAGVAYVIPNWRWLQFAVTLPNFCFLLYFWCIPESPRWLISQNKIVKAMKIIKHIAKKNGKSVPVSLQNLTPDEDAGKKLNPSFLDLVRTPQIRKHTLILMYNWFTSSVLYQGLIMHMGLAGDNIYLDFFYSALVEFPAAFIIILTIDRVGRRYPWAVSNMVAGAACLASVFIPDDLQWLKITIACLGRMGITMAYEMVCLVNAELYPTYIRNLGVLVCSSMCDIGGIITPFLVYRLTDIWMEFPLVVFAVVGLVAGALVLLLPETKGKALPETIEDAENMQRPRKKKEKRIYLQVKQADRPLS

[2] = target: T1, Solute carrier family 22 member 2; assay: TP_TRANSPORTER: uptake (apical to cell) in OCT2-expressing NIH3T3 cells; assay type: functional, cell-based; conditions: mouse
[3] = substrate: CC[N+](CC)(CC)CC; assay: cells, lysate or membranes named

For `CN/C(=N/CCSCc1nc[nH]c1C)NC#N` [CIMETIDINE], the Ki [1] was 198 µM.

Molecule `CC[n+]1c(CC2C=C(C)N=C(c3ccccc3)N2C)ccc2ccccc21` (stereo not given) [Cyanine-863] has a Ki [1] of 0.861 µM.

With `COc1cccc2c1C(=O)c1c(O)c3c(c(O)c1C2=O)C[C@@](O)(C(C)=O)C[C@@H]3O[C@H]1C[C@H](N)[C@H](O)[C@H](C)O1` [DAUNORUBICIN] the Activity [2] was “substrate [+]”.

With `CC[C@]1(O)C[C@@H]2CN(CCc3c([nH]c4ccccc34)[C@@](C(=O)OC)(c3cc4c(cc3OC)N(C)[C@H]3[C@@](O)(C(=O)OC)[C@H](OC(C)=O)[C@]5(CC)C=CCN6CC[C@]43[C@@H]65)C2)C1` [VINBLASTINE] the Activity [2] was “substrate [+]”.

B1: Solute carrier family 22 member 2 (Rattus norvegicus) (protein)
chain: MSTVDDILEHIGEFHLFQKQTFFLLALLSGAFTPIYVGIVFLGFTPDHHCWSPGAAKLSQRCGWSQAEELNYTVPGLGPSDEASFLSQCMRYEVDWNQSTLDCVDPLSSLAADRNQLPLGPCEHGWVYNTPGSSIVTEFNLVCAHSWMLDLFQSVVNVGFFIGAMMIGYLADRFGRKFCLLVTILINAISGALMAISPNYAWMLVFRFLQGLVSKAGWLIGYILITEFVGLGYRRMVGICYQIAFTVGLLILAGVAYVIPNWRWLQFAVTLPNFCFLLYFWCIPESPRWLISQNKIVKAMKIIKHIAKKNGKSVPVSLQNLTPDEDAGKKLNPSFLDLVRTPQIRKHTLILMYNWFTSSVLYQGLIMHMGLAGDNIYLDFFYSALVEFPAAFIIILTIDRVGRRYPWAVSNMVAGAACLASVFIPDDLQWLKITIACLGRMGITMAYEMVCLVNAELYPTYIRNLGVLVCSSMCDIGGIITPFLVYRLTDIWMEFPLVVFAVVGLVAGALVLLLPETKGKALPETIEDAENMQRPRKKKEKRIYLQVKQADRPLS
B1 gave a Km [3] of 141 µM.
